This assay concerns the target T1, human GLP-1 receptor (Homo sapiens, UniProt P43220).
T1 construct: expressed in transfected cells
The assay can be described thus: GLP-1R cAMP Assay. Type of assay: cell-based. Conditions: cAMP accumulation in CHO cells stably overexpressing the human GLP-1 receptor; 30 min treatment; HitHunter cAMP kit; read-out: EC50. A digest of the protocol: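 CHO cells stably overexpressing human GLP-1R, 10,000 cells/well, treated with compound in 20-point dose response in triplicate for 30 min. cAMP accumulation read by enzyme-complementation luminescence after lysis and overnight incubation; dose-response curves fitted.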
On the technique in general: cAMP levels reflect the balance of adenylyl cyclase and phosphodiesterase activity.
T1 sequence (P43220 24-463): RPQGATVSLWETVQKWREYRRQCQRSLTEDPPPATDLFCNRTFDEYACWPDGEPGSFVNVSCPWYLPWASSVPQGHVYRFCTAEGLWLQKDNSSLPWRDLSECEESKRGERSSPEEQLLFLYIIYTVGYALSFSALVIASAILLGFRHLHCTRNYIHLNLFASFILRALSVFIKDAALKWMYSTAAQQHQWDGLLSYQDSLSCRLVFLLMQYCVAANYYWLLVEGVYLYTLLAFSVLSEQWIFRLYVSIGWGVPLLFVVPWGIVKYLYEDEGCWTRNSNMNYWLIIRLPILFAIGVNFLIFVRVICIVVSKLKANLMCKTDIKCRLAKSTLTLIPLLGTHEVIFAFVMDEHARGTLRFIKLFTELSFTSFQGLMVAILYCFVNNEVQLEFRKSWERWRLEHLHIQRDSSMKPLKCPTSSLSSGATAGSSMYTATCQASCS
Broadly, the EC50 is the concentration at which the effect is half-maximal. In the case of `Cc1ccc(N(C)c2cccc(C(=O)N3CCN(Cc4nc5ccc(C(=O)O)cc5n4C[C@@H]4CCO4)CC3)n2)c(Cl)c1` [Compound 101, 2-[(4-{6-[(2-chloro-4-methylphenyl)(methyl)amino]pyridine-2-carbonyl}piperazin-1-yl)methyl]-1-{[(2S)-oxetan-2-yl]methyl}-1H-1,3-benzodiazole-6-carboxylic acid], the EC50 fell in the range of 50 to 500 nM.
In the case of `O=C(O)c1ccc2nc(CN3CCC(Cc4cccc(COc5ccc(Cl)cc5Cl)c4)CC3)n(C[C@@H]3CCO3)c2c1` [Compound 103, 2-{[4-({3-[(2,4-dichlorophenoxy)methyl]phenyl}methyl)piperidin-1-yl]methyl}-1-{[(2S)-oxetan-2-yl]methyl}-1H-1,3-benzodiazole-6-carboxylic acid], the EC50 is less than 50 nM.
For `CCn1cncc1Cn1c(CN2CCC(Cc3cccc(COc4ccc(Cl)cc4Cl)c3)CC2)nc2ccc(C(=O)O)cc21` [Compound 104, 2-{[4-({3-[(2,4-dichlorophenoxy)methyl]phenyl}methyl)piperidin-1-yl]methyl}-1-[(1-ethyl-1H-imidazol-5-yl)methyl]-1H-1,3-benzodiazole-6-carboxylic acid], the EC50 is less than 50 nM.
To `O=C(c1ccc(-c2nnn[nH]2)nc1)N1CCC(Cc2ccc(COc3ccc(Cl)cc3Cl)o2)CC1` [Compound 107, 5-[4-({5-[(2,4-dichlorophenoxy)methyl]furan-2-yl}methyl)piperidine-1-carbonyl]-2-(1H-1,2,3,4-tetrazol-5-yl)pyridine] belongs greater than 500 nM.
To `CCn1cncc1Cn1c(CN2CCC(Cc3ccc(COc4ccc(Cl)cc4Cl)o3)CC2)nc2ccc(C(=O)O)nc21` [Compound 108, 2-{[4-({5-[(2,4-dichlorophenoxy)methyl]furan-2-yl}methyl)piperidin-1-yl]methyl}-3-[(1-ethyl-1H-imidazol-5-yl)methyl]-3H-imidazo[4,5-b]pyridine-5-carboxylic acid] belongs less than 50 nM; to `CCn1cncc1Cn1c(CN2CCC(Cc3ccc(COc4ccc(Cl)cc4Cl)o3)CC2)nc2ccc(C(=O)O)cc21` [Compound 109, 2-{[4-({5-[(2,4-dichlorophenoxy)methyl]furan-2-yl}methyl)piperidin-1-yl]methyl}-1-[(1-ethyl-1H-imidazol-5-yl)methyl]-1H-1,3-benzodiazole-6-carboxylic acid], less than 50 nM; to `O=C(O)c1ccc2nc(CN3CCN(C(=O)c4ncc(COc5ccc(Cl)cc5Cl)o4)CC3)n(C[C@@H]3CCO3)c2c1` [Compound 113, 2-[(4-{5-[(2,4-dichlorophenoxy)methyl]-1,3-oxazole-2-carbonyl}piperazin-1-yl)methyl]-1-{[(2S)-oxetan-2-yl]methyl}-1H-1,3-benzodiazole-6-carboxylic acid], greater than 500 nM.
With `Cc1ccc(N(C)c2cccc(CC3=CCN(Cc4nc5ccc(C(=O)O)cc5n4C[C@@H]4CCO4)CC3)c2)c(Cl)c1` [Compound 117, 2-{[4-({3-[(2-chloro-4-methylphenyl)(methyl)amino]phenyl}methyl)-1,2,3,6-tetrahydropyridin-1-yl]methyl}-1-{[(2S)-oxetan-2-yl]methyl}-1H-1,3-benzodiazole-6-carboxylic acid] the figure was 50 to 500 nM; with `Cc1ccc(OCc2cccc(CC3CCN(Cc4nc5ccc(C(=O)O)cc5n4C[C@@H]4CCO4)CC3)n2)c(Cl)c1` [Compound 118, 2-{[4-({6-[(2-chloro-4-methylphenoxy)methyl]pyridin-2-yl}methyl)piperidin-1-yl]methyl}-1-{[(2S)-oxetan-2-yl]methyl}-1H-1,3-benzodiazole-6-carboxylic acid], less than 50 nM.
Regarding `CCn1cncc1Cn1c(CN2CCC(Cc3cccc(COc4ccc(C)cc4Cl)n3)CC2)nc2ccc(C(=O)O)cc21` [Compound 120, 2-{[4-({6-[(2-chloro-4-methylphenoxy)methyl]pyridin-2-yl}methyl)piperidin-1-yl]methyl}-1-[(1-ethyl-1H-imidazol-5-yl)methyl]-1H-1,3-benzodiazole-6-carboxylic acid], the EC50 is less than 50 nM.

Values taken from patent US20230089073A1 (Carmot Therapeutics, Inc., priority 2021, published 2023).
